Test results: PubChem BioAssay (NCI)
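Interpolation was linear, between the two tested concentrations surrounding the appropriate level; five concentrations were tested over 48 hours in 96-well plates. TGI marks complete inhibition of growth.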

Experiments:
Assay in all cases: NCI tumour cell line growth inhibition, 48 h
[1] = test system: KM12 colon
[2] = test system: OVCAR-5 ovarian
[3] = test system: HCC-2998 colon
[4] = test system: HOP-62 NSCLC
[5] = test system: A498 renal
[6] = test system: 786-0 renal
[7] = test system: HL-60(TB) leukemia
[8] = test system: MCF7 breast
[9] = test system: RPMI-8226 leukemia
[10] = test system: A549 NSCLC
[11] = test system: CCRF-CEM leukemia
[12] = test system: MOLT-4 leukemia
[13] = test system: SK-MEL-28 melanoma
[14] = test system: TK-10 renal
[15] = test system: ACHN renal
[16] = test system: SK-OV-3 ovarian
[17] = test system: U251 CNS
[18] = test system: LOX IMVI melanoma
[19] = test system: HOP-92 NSCLC
[20] = test system: HS 578T breast
[21] = test system: SF-295 CNS
[22] = test system: OVCAR-3 ovarian
[23] = test system: BT-549 breast
[24] = test system: MDA-N
[25] = test system: UACC-257 melanoma
[26] = test system: EKVX NSCLC
[27] = test system: CAKI-1 renal
[28] = test system: MDA-MB-231 breast
[29] = test system: OVCAR-8 ovarian
[30] = test system: PC-3 prostate
[31] = test system: SN12C renal
[32] = test system: MALME-3M melanoma
[33] = test system: SK-MEL-5 melanoma
[34] = test system: NCI-H522 lung
[35] = test system: IGROV1 ovarian
[36] = test system: COLO 205 colon
[37] = test system: HCT-116 colon
[38] = test system: OVCAR-4 ovarian
[39] = test system: UO-31 renal
[40] = test system: SF-268 CNS
[41] = test system: UACC-62 melanoma
[42] = test system: K-562 leukemia
[43] = test system: MDA-MB-435
[44] = test system: HCT-15 colon
[45] = test system: SR leukemia
[46] = test system: NCI-H226 lung
[47] = test system: NCI-H23 lung
[48] = test system: DU-145 prostate
[49] = test system: SK-MEL-2 melanoma
[50] = test system: T-47D breast
[51] = test system: RXF 393 renal
[52] = test system: NCI-H460 lung
[53] = test system: SF-539 CNS
[54] = test system: M14 melanoma
[55] = test system: HT29 colon
[56] = test system: SW-620 colon
[57] = test system: NCI/ADR-RES ovarian
[58] = test system: SNB-75 CNS
[59] = test system: SNB-19 CNS

c1ccc(COC[C@H]2C3OCC([C@H](OCc4ccccc4)[C@H]3OCc3ccccc3)N2Cc2ccccc2)cc1 (some centres not stated)
TGI [1]: > 100 µM | TGI [2]: > 100 µM | TGI [3]: > 100 µM | TGI [4]: > 100 µM | TGI [5]: > 100 µM | TGI [6]: > 100 µM | TGI [7]: > 53.4 µM | TGI [8]: > 100 µM | TGI [9]: > 100 µM | TGI [10]: > 100 µM | TGI [11]: > 100 µM | TGI [12]: > 51.7 µM | TGI [13]: > 100 µM | TGI [14]: > 100 µM | TGI [15]: > 100 µM | TGI [16]: > 100 µM | TGI [17]: > 100 µM | TGI [18]: > 100 µM | TGI [19]: > 100 µM | TGI [20]: > 100 µM | TGI [21]: > 100 µM | TGI [22]: > 100 µM | TGI [23]: > 100 µM | TGI [24]: > 100 µM | TGI [25]: > 100 µM | TGI [26]: > 100 µM | TGI [27]: > 100 µM | TGI [28]: > 100 µM | TGI [29]: > 100 µM | TGI [30]: > 100 µM | TGI [31]: > 100 µM | TGI [32]: > 100 µM | TGI [33]: > 100 µM | TGI [34]: > 82 µM | TGI [35]: > 100 µM | TGI [36]: > 100 µM | TGI [37]: > 100 µM | TGI [38]: > 100 µM | TGI [39]: > 100 µM | TGI [40]: > 100 µM | TGI [41]: > 100 µM | TGI [42]: > 83 µM | TGI [43]: > 100 µM | TGI [44]: > 100 µM | TGI [45]: > 100 µM | TGI [46]: > 100 µM | TGI [47]: > 100 µM | TGI [48]: > 100 µM | TGI [49]: > 100 µM | TGI [50]: > 100 µM | TGI [51]: > 100 µM | TGI [52]: > 100 µM | TGI [53]: > 100 µM | TGI [54]: > 100 µM | TGI [55]: > 100 µM | TGI [56]: > 100 µM | TGI [57]: > 100 µM | TGI [58]: > 100 µM | TGI [59]: > 100 µM

COC1C(=O)N(SC)C1c1ccccc1Cl (configuration not stated)
TGI [1]: > 100 µM | TGI [2]: 32.2 µM | TGI [3]: 28.8 µM | TGI [4]: > 100 µM | TGI [5]: > 100 µM | TGI [6]: 32.9 µM | TGI [7]: 42.2 µM | TGI [8]: 43 µM | TGI [9]: 44.5 µM | TGI [10]: > 100 µM | TGI [11]: 35.1 µM | TGI [12]: 31.6 µM | TGI [13]: > 100 µM | TGI [14]: > 100 µM | TGI [15]: 33.9 µM | TGI [16]: > 100 µM | TGI [17]: > 100 µM | TGI [18]: > 100 µM | TGI [19]: > 100 µM | TGI [20]: > 100 µM | TGI [21]: > 100 µM | TGI [22]: 34.3 µM | TGI [23]: 54.2 µM | TGI [24]: > 100 µM | TGI [25]: > 100 µM | TGI [26]: 64.6 µM | TGI [27]: > 100 µM | TGI [28]: 87.3 µM | TGI [29]: 39.4 µM | TGI [30]: > 100 µM | TGI [31]: 47.3 µM | TGI [32]: 44.4 µM | TGI [33]: > 100 µM | TGI [34]: 33.5 µM | TGI [35]: 38.6 µM | TGI [36]: > 100 µM | TGI [37]: 24.4 µM | TGI [38]: 30.3 µM | TGI [39]: 33.3 µM | TGI [40]: > 100 µM | TGI [41]: > 100 µM | TGI [42]: 66.2 µM | TGI [43]: 53.9 µM | TGI [44]: 45.1 µM | TGI [45]: 42.4 µM | TGI [47]: > 100 µM | TGI [48]: > 100 µM | TGI [49]: > 100 µM | TGI [50]: 58.5 µM | TGI [51]: > 100 µM | TGI [52]: > 100 µM | TGI [53]: 35.2 µM | TGI [54]: 94.2 µM | TGI [55]: 40.7 µM | TGI [56]: 45.6 µM | TGI [57]: > 100 µM | TGI [59]: > 100 µM

c1cc2c3ccsc3c3sccc3c2s1
TGI [1]: > 100 µM | TGI [2]: > 100 µM | TGI [3]: > 100 µM | TGI [4]: 70.5 µM | TGI [5]: > 100 µM | TGI [6]: > 100 µM | TGI [7]: > 100 µM | TGI [8]: > 100 µM | TGI [9]: > 100 µM | TGI [10]: > 100 µM | TGI [11]: > 100 µM | TGI [12]: > 100 µM | TGI [13]: > 100 µM | TGI [14]: > 100 µM | TGI [15]: > 100 µM | TGI [16]: > 100 µM | TGI [17]: > 100 µM | TGI [18]: > 100 µM | TGI [19]: > 100 µM | TGI [20]: 71.8 µM | TGI [21]: > 100 µM | TGI [22]: > 100 µM | TGI [23]: > 100 µM | TGI [24]: > 100 µM | TGI [25]: > 100 µM | TGI [26]: > 100 µM | TGI [27]: > 100 µM | TGI [28]: > 100 µM | TGI [29]: > 100 µM | TGI [30]: > 100 µM | TGI [31]: > 100 µM | TGI [33]: > 100 µM | TGI [35]: > 100 µM | TGI [36]: > 100 µM | TGI [37]: > 100 µM | TGI [38]: > 100 µM | TGI [39]: > 100 µM | TGI [40]: > 100 µM | TGI [41]: > 100 µM | TGI [42]: > 100 µM | TGI [43]: > 100 µM | TGI [44]: > 100 µM | TGI [45]: > 100 µM | TGI [46]: > 100 µM | TGI [47]: > 100 µM | TGI [48]: > 100 µM | TGI [49]: > 100 µM | TGI [50]: > 100 µM | TGI [51]: > 100 µM | TGI [52]: > 100 µM | TGI [53]: > 100 µM | TGI [54]: > 100 µM | TGI [55]: > 100 µM | TGI [56]: > 100 µM | TGI [57]: > 100 µM | TGI [58]: > 100 µM
